The values below come from a melting point compilation (Tetko et al.).

Broadly, the melting point is the temperature, or range, at which the solid turns liquid.

SMILES strings stand for the structures.

With `O=C(O)C1=C(Nc2ccccc2)OCC1=O`, the melting point fell in the range of 140 to 150 °C.
Compound `CN(C)C(=O)c1cccc(C#N)c1` gave a melting point of 87 to 89 °C.
As to `CC(N)c1ccc2c(c1)CC(=O)N2C` (centres undefined), the melting point fell in the range of 101 to 103 °C.
In turn, `Nc1cc([N+](=O)[O-])ccc1Nc1ccc(F)cc1` returned a melting point of 162 to 164 °C.
Regarding `Sc1nnc(-c2ccccc2)s1`, the melting point was in the range of 199 to 201 °C.
`Nc1nc(CN2CCN(c3ncccn3)CC2)cs1` had a melting point of 158 to 160 °C.
For `NC(=O)C1CCN(Cc2cccc(N)c2)CC1`, the melting point lay in the range of 139 to 141 °C.
Compound `O=C(O)Cn1ccc([N+](=O)[O-])n1` came in with a melting point of 172 to 174 °C.
`COc1cc(C(=O)CBr)ccc1OC(F)F` gave a melting point of 45 to 46 °C.
For `NC(=S)c1cccc(S(=O)(=O)NC2CCCCCCC2)c1`, the melting point lay within 124 to 126 °C.
Consider `COc1cc(S(=O)(=O)Cl)cc(C(=O)O)c1OC`, for which the melting point fell in the range of 159 to 161 °C.
In the case of `CC(N)CCc1ccc(O)cc1` (centres undefined), the melting point fell in the range of 111 to 113 °C.
`CC(NC(=O)c1[nH]nc2ccccc12)C(=O)O` (centres undefined) displayed a melting point of 208 to 210 °C.
Compound `Nc1ccc2c(c1)OC1(CCCCC1)O2` had a melting point of 65 to 67 °C.
`CNC(=O)c1cc(OC)ccc1N`: the melting point is 119 to 121 °C.
`COC(=O)C1CNC(=O)C1` (centres undefined) yielded a melting point of 58 to 60 °C.
To `O=C(O)CCNS(=O)(=O)c1ccc(OC(F)(F)F)cc1` belongs 150 to 152 °C; to `O=C(O)CC1CCc2ccccc21` (centres undefined), 58 to 60 °C.
Take `CS(=O)(=O)Nc1ccc(N)cc1`: the melting point lay within 114 to 116 °C.
The compound `Cc1ccccc1C(=O)NC1CCN(C(=O)CCl)CC1` registered a melting point of 126 to 128 °C.
`c1ccc2sc(NCCCN3CCOCC3)nc2c1` gave a melting point of 182 to 184 °C.
To `O=C(O)c1ccccc1-c1cncnc1` belongs 228 to 230 °C.
As for `COC(=O)c1c[nH]c2ncccc12`, the melting point lay in the range of 208 to 210 °C.
With `COc1cc(C#N)ccc1OCC1CCCO1` (centres undefined) the figure was 86 to 88 °C; with `Cc1nc2ccccc2n1CC(=O)NN`, 233 to 235 °C.
Compound `O=C(O)c1ccc(CN2CCCC2=O)cc1` showed a melting point of 151 to 153 °C.
Compound `Cc1ccc([N+](=O)[O-])c(C)c1N` returned a melting point of 80 to 82 °C.
Consider `Oc1cccc(-n2cccn2)c1`, for which the melting point was in the range of 131 to 133 °C.
In turn, `O=C(O)CSc1cccc(Br)c1` came in with a melting point of 79 to 81 °C.
`COC(=O)c1cc(F)cc(OC)c1N` had a melting point of 66 to 68 °C.
Turning to `COc1cc(C(=O)O)ccc1OCC(N)=O`, the melting point lay within 257 to 259 °C.
To `Cc1ccc(S(=O)(=O)NC2CCCCC2)cc1C(=O)O` belongs 217 to 219 °C; to `Clc1ccc2c(c1)CCCN2`, 37 to 39 °C.
Turning to `CN(C)c1cccc(-c2nnc(S)n2N)c1`, the melting point lay within 209 to 211 °C.
The compound `CC(C)c1nc(CC(=O)O)cs1` registered a melting point of 87 to 89 °C.
Compound `CC(=O)N1CCC(CCC(=O)O)CC1` yielded a melting point of 119 to 121 °C.
Turning to `O=S(=O)(Cl)c1ccc(Br)c(C(F)(F)F)c1`, the melting point is 29 to 31 °C.
`Cc1nc(C(N)=O)c(N)n1C` showed a melting point of 159 to 161 °C.
As for `CC(C)n1ncc(C(=O)O)c1C(F)(F)F`, the melting point was 125 to 127 °C.
`CC(SCC(=O)Nc1ccc(Br)cc1)C(=O)O` (centres undefined): the melting point lay in the range of 139 to 141 °C.
In turn, `CCNC(=O)NC(=O)CCl` displayed a melting point of 138 to 140 °C.
The compound `NNC(=O)CCc1ccccc1` displayed a melting point of 99 to 101 °C.
For the compound `CNS(=O)(=O)c1cccc(N)c1C`, the melting point lay in the range of 125 to 127 °C.
For `Nc1ncn(-c2ccncc2)n1`, the melting point was 213 to 215 °C.
With `NCc1cccc(NC(=O)c2ccc(F)cc2)c1`, the melting point is 132 to 134 °C.
With `O=C1COc2ncccc2N1` the figure was 254 to 256 °C; with `O=C(O)c1cnc(Cl)c([N+](=O)[O-])c1`, 126 to 128 °C.
For the compound `N#CCOc1ccc(CC(=O)O)cc1`, the melting point is 111 to 113 °C.
Consider `COc1ccc(/C=C/C(=O)O)c(OC)c1`, for which the melting point lay in the range of 192 to 194 °C.
